# Where two headings read alike, the source gives them in different places.
# Key:
# [1] = Cell-free HPLC reduction assay (GSH or TCEP challenge); conditions: 5 mM GSH (50 equiv), 24 h
# Source text: These performance features had not been tested with naphthols, so we used HPLC to test them and show their reduction-based activation sequence (Figure 2c and Figures S4–S6).
# In brief, treatment with the quantitative reductant TCEP triggered a reaction cascade matching the activation sequence we expected (Figure 2c): dichalcogenides are reduced to dichalcogenols that cyclize, giving the naphthol cargos (plus thiol trigger byproduct) that evolve to the activated cyclopropanes (Figure 5).
# The mobile phase consists of eluent A: water (analytical
# grade, 0.1% formic acid) and eluent B: MeCN (analytical grade, 0.1% formic acid).
# using a gradient of 10% B t o 90% B over 10 min.
# Reduction assay using TCEP and GSH
# tris(2-carboxyethyl)phospine) (TCEP, 5 mM in TE-bu f f e r ) , or reduced glut at hione (GSH, 50 mM in TE-buf f er) or
# else blank TE-buffer. Final concentrations: Prodrug (0.1 mM) , TCEP ( 0. 5 mM) , G SH ( 5 mM). The blank sample
# was measured after 10 min (“pure”) and 24 h (“O H-“) to control for basic hydrolysis. The GSH sample was
# measured after 24 h to control for monothiol-based reductive release. The TCEP sample was measured at several […]
# extracted for each of the intermediate species and final r elease products. Peak areas were calculated relative to
# the sum of all peak areas at 320 nm to quantify individual species at each timepoints. […]
# A549 cells = test: Resazurin cytotoxicity assay, A549, 72 h; conditions: read-out: IC50(nM): A549
# Experimental: (§1) We used A549 lung cancer and HeLa cervical cancer cell lines for initial screening of the prodrugs.
# Fi gure S9: Cell ular resazurin-based cytotoxi ci ty as s a y.
# Dose -response curves were calculated from at least 27 incremental single concentrations over a range
# of at least three log units. Individual experiments with annotated experiment numbers are shown for each prodrug
# HeLa-HRE cells = test: Resazurin cytotoxicity assay, HeLa-HRE, 48 h; conditions: for IC50(HeLa)/IC50(A549): ratio HeLa vs A549
# Experimental: as §1
# HeLa-HRE cells were treated with prodrugs of the
# Dose -response curves were calculated from at least 27 incremental single concentrations over a
# range of at least three log units.
# [2] = test system: NCI-60 standardized human tumor cell line panel; test: cells; format: cell-based; conditions: AZI sheet, read-out: GI50
# Balb/c mice = test: Single-dose toxicity study; format: in vivo; conditions: week following treatment
# Experimental: To test if low prodrug activation could enable in vivo use, we performed dosing and toxicity studies in Balb/c mice, comparing the toxicity and the tolerated dosing of low-reducible SS60-CBI-AZI or substantially reducible SeS60-CBI-AZI and to those of non-reducible carbamate O56-CBI-AZI. Single-dose toxicity was studied over the range 0.1–10 mg/kg.
# Methods for in vivo animal studies
# All in vivo studies were conducted as contract research together with React ionBiology Eur ope G mbH (Freiburg,
# Germany), EPO – Experimental Pharmacology & Oncology GmbH (Berlin, Germany); Bient a/ Enam ine Lt d. (Kyiv,
# Ukraine) and Leit at – Managing Technologies (Barcelona, Spain), adhering to the respective animal welfare
# Mice were kept in individually ventilated cages at constant temperature (22±2 °C, air-conditioned) and humidity (45
# – 65%), under optimum hygienic conditions with 10 – 15 air changes per hour. A cycle of 12 h artificial fluorescent
# light ning and 12 h darkness was applied , and animal behavior was monitored daily throughout the studies. The
# animals received food and water ad libit um.
# To evaluate toxicity of selected compounds, dose level selection studies within dose range from 0.1 mg/kg to
# 10 mg/kg were performed by intravenous administration into Balb /c mice. […]
# were monitored after each drug administration and three times per week for 21 consecutive days after the first […]
# 4T1 murine breast cancer = test: 4T1 orthotopic breast cancer efficacy study; format: in vivo; conditions: 4T1 in Balb/c mice; CBI prodrugs 3 mg/kg
# Source text: We then moved to in vivo anticancer efficacy trials of these prodrugs. […] As one model we chose the syngeneic murine breast cancer 4T1, implanted orthotopically (at the native tissue site) into the fat pad of immunocompetent Balb/c mice (i.e., offering a realistic immune system and tumor microenvironment). This model gives rapid, aggressive tumor growth.[52] As a second model, we chose to xenograft human BxPC-3 pancreatic adenocarcinoma cells into immunodeficient hosts. This is a slower-growing model, with low metastasis, that can be more resistant to traditional antimitotic therapy.[53],[54] Mice were implanted, randomized once tumors reached 100–150 mm^3 volume, and treated once or twice weekly with prodrug or control compounds typically at 3 mg/kg (8–12 animals per condition, Figure 10a). Tumors were measured by caliper during the assay and weighed at termination.
# 7. 2. in vivo efficacy mouse studies
# 4T1 efficacy study BxPC-3 efficacy study a Absolute tumour volumes b Absolute tumour volumes […]
# days after tumor implantation days after tumor implantation c Relative tumour volumes d Relative tumour volumes […]
# e RTV! fi"al day of followu# f ex viv tumour weights g RTV! fi"al day of followu# h ex viv tumour weights (. mice remain in all *roups) (for animals left at day 31)(all *roups have statistical power)(day "2/ all animals left) […]
# vehicle(1x)(1x)(1x) (2x)(2x) […]
# P-##"0-#$%-&'%P-!!"0-#$%-&'%P-!!"0-#$%-()%P-!!"0-#$%-&'% %rinotecan %rinotecan P-##"0-#$%-&'%P-!!"0-#$%-()%P-!!"0-#$%-&'%P-!!"0-#$%-&'% P-!!"0-#$%-&'% P-!!"0-#$%-&'% […]
# i Body weights $ Body weights […]
# implant in Balb/c mice, 8 mice per group; (b, d,g,h,j): BxPC-3 subcutaneous xenograft in NMRi mice, 8 mice per […]
# treatment (m e d ia n); (e,g) in vivo caliper measurement of relative tum or volumes at final day of followup [last day when all mice in all groups remain in the study] […]
# tumor weights at termination of study (only mice not terminated on ethical grounds before the indicated days were harvested); (i,j) Bodyweights (means).
# (BxPC-3 study); dotted vertical lines indicate days of [potential] treatment.
# [3] = test system: Balb/c mice with 4T1 tumors; test: 4T1-bearing tolerability study; conditions: 10 mg/kg
# Source text: Finally, another large study intended for antitumor efficacy also had to be examined only in terms of tolerability.
# (a,c, e, g, h): BxPC-3 subcutaneous xenograft in NMRi mice, 10 mice per group; ( b, d, f,i ,j): 4T1 murine breast cancer syngeneic orthotopic implant in Balb/c mice,
# (a,b) Bodyweights (means); (c, d) absolute tumor volumes (medians); (e,f) tumor volumes relative to individual volumes at start of treatment (medians); (g,h,i ,j) absolute and relative tumor volumes at final day of study (datapoints with means and 95% confidence interval). All tumor measurements are in vivo caliper measurements. Dotted vertical lines indicate days of treatment. All CBI groups dosed at 3 mg/kg i. v., ca . 1 0 0 µL injection volume in vehicle (10:90 DMSO:saline).
# [4] = read-out: IC50(nM): HeLa, HeLa, 48 h
smiles,measurement,setting,value
CN1CCN(C(=O)Oc2cc3c(c4ccccc24)C(CCl)CN3C(=O)c2cc3cc(OCCCN4CCC4)ccc3[nH]2)C2CSSCC21 (mixture of isomers) [Me-SS66C-CBI-AZI],release/reduction on GSH challenge,[1],no disulfide reduction/prodrug release was indicated
same,IC50,A549 cells,12 nM
same,IC50(HeLa)/IC50(A549),HeLa-HRE cells,33
same,IC50,HeLa-HRE cells; [4],400 nM
same,GI50,[2]; 786-0,8.8 nM
same,GI50,[2]; A498,26 nM
same,GI50,[2]; A549/ATCC,5 nM
same,GI50,[2]; ACHN,2 nM
same,GI50,[2]; BT-549,54 nM
same,GI50,[2]; CAKI-1,8.2 nM
same,GI50,[2]; CCRF-CEM,18 nM
same,GI50,[2]; COLO 205,22 nM
same,GI50,[2]; DU-145,5.3 nM
same,GI50,[2]; EKVX,27 nM
same,GI50,[2]; HCC-2998,22 nM
same,GI50,[2]; HCT-15,11 nM
same,GI50,[2]; HCT-116,46 nM
same,GI50,[2]; HL-60(TB),29 nM
same,GI50,[2]; HOP-62,9.6 nM
same,GI50,[2]; HOP-92,53 nM
same,GI50,[2]; HT29,15 nM
same,GI50,[2]; IGROV1,6.6 nM
same,GI50,[2]; K-562,17 nM
same,GI50,[2]; KM12,90 nM
same,GI50,[2]; LOX IMVI,3.2 nM
same,GI50,[2]; M14,14 nM
same,GI50,[2]; MALME-3M,19 nM
same,GI50,[2]; MCF7,1.5 nM
same,GI50,[2]; MDA-MB-231,37.8 nM
same,GI50,[2]; MDA-MB-435,25 nM
same,GI50,[2]; MDA-MB-468,5.3 nM
same,GI50,[2]; MOLT-4,14 nM
same,GI50,[2]; NCI-H23,4.3 nM
same,GI50,[2]; NCI-H226,6.9 nM
same,GI50,[2]; NCI-H460,1.6 nM
same,GI50,[2]; NCI-H522,28 nM
same,GI50,[2]; OVCAR-3,51 nM
same,GI50,[2]; OVCAR-4,74 nM
same,GI50,[2]; OVCAR-5,23 nM
same,GI50,[2]; OVCAR-8,12 nM
same,GI50,[2]; PC-3,34 nM
same,GI50,[2]; RPMI-8226,35 nM
same,GI50,[2]; RXF 393,4.2 nM
same,GI50,[2]; SF-268,20 nM
same,GI50,[2]; SF-295,2.1 nM
same,GI50,[2]; SF-539,22 nM
same,GI50,[2]; SK-MEL-2,31 nM
same,GI50,[2]; SK-MEL-5,19 nM
same,GI50,[2]; SK-MEL-28,22 nM
same,GI50,[2]; SK-OV-3,30 nM
same,GI50,[2]; SN12C,12 nM
same,GI50,[2]; SNB-19,18 nM
same,GI50,[2]; SR,2.7 nM
same,GI50,[2]; SW-620,18 nM
same,GI50,[2]; T-47D,15 nM
same,GI50,[2]; TK-10,36 nM
same,GI50,[2]; U251,3.6 nM
same,GI50,[2]; UACC-62,4.2 nM
same,GI50,[2]; UACC-257,34 nM
same,GI50,[2]; UO-31,12 nM
O=C(c1cc2cc(OCCCN3CCC3)ccc2[nH]1)N1C[C@@H](CCl)c2c1cc(OCc1ccccc1)c1ccccc21 [OBn-CBI-AZI],IC50,A549 cells,420 nM
same,IC50,"HeLa-HRE cells; initial screening, A549 and HeLa cell lines",> 1000 nM
same,IC50(HeLa)/IC50(A549),HeLa-HRE cells,1.8
same,IC50,HeLa-HRE cells; [4],750 nM
same,GI50,[2]; 786-0,270 nM
same,GI50,[2]; A498,380 nM
same,GI50,[2]; A549/ATCC,160 nM
same,GI50,[2]; ACHN,35 nM
same,GI50,[2]; CAKI-1,190 nM
same,GI50,[2]; CCRF-CEM,410 nM
same,GI50,[2]; COLO 205,280 nM
same,GI50,[2]; EKVX,370 nM
same,GI50,[2]; HCC-2998,320 nM
same,GI50,[2]; HCT-15,130 nM
same,GI50,[2]; HCT-116,640 nM
same,GI50,[2]; HL-60(TB),440 nM
same,GI50,[2]; HOP-62,140 nM
same,GI50,[2]; HOP-92,500 nM
same,GI50,[2]; HT29,270 nM
same,GI50,[2]; IGROV1,190 nM
same,GI50,[2]; K-562,250 nM
same,GI50,[2]; KM12,810 nM
same,GI50,[2]; LOX IMVI,56 nM
same,GI50,[2]; M14,210 nM
same,GI50,[2]; MALME-3M,280 nM
same,GI50,[2]; MDA-MB-231,3070 nM
same,GI50,[2]; MDA-MB-435,330 nM
same,GI50,[2]; MOLT-4,270 nM
same,GI50,[2]; NCI-H23,73 nM
same,GI50,[2]; NCI-H226,210 nM
same,GI50,[2]; NCI-H460,17 nM
same,GI50,[2]; NCI-H522,380 nM
same,GI50,[2]; OVCAR-3,500 nM
same,GI50,[2]; OVCAR-4,540 nM
same,GI50,[2]; OVCAR-5,340 nM
same,GI50,[2]; OVCAR-8,240 nM
same,GI50,[2]; RPMI-8226,500 nM
same,GI50,[2]; RXF 393,230 nM
same,GI50,[2]; SF-268,330 nM
same,GI50,[2]; SF-295,46 nM
same,GI50,[2]; SF-539,290 nM
same,GI50,[2]; SK-MEL-2,370 nM
same,GI50,[2]; SK-MEL-5,270 nM
same,GI50,[2]; SK-MEL-28,330 nM
same,GI50,[2]; SK-OV-3,450 nM
same,GI50,[2]; SN12C,360 nM
same,GI50,[2]; SNB-19,330 nM
same,GI50,[2]; SR,44 nM
same,GI50,[2]; SW-620,260 nM
same,GI50,[2]; TK-10,560 nM
same,GI50,[2]; U251,61 nM
same,GI50,[2]; UACC-62,62 nM
same,GI50,[2]; UACC-257,390 nM
same,GI50,[2]; UO-31,260 nM
same,outcome at 10 mg/kg single dose,Balb/c mice,not lethal
"CCc1c2c(nc3ccc(OC(=O)N4CCC(N5CCCCC5)CC4)cc13)-c1cc3c(c(=O)n1C2)COC(=O)[C@]3(O)CC [irinotecan, reference compound]",effect on tumor growth,4T1 murine breast cancer,expected tumor-slowing effect
same,effect on tumor growth,[3],failed to slow tumor growth

# From PMC10141580, “Cyclic Dichalcogenides Extend the Reach of Bioreductive Prodrugs to Harness Thiol/Disulfide Oxidoreductases: Applications to seco-Duocarmycins Targeting the Thioredoxin System” (ACS Central Science, 2023)
